# Reference: ChEMBL document CHEMBL1201862, “PubChem BioAssay data set” (2004)
#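 Cultured in 96-well plates, cells were exposed to test compound for 48 hours across five concentrations. At the GI50, growth is halved.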 Calls of active or inactive are those of the source. No stated cut-off is given here; in the data, active = GI50 up to about 1.1 µM and inactive = higher.
# Columns and labels:
# Assay in all cases: inhibition of tumour cell growth, NCI panel, 48 h
# HCT-116 = system: HCT-116
# KM12 = system: KM12
# SNB-19 = system: SNB-19
# EKVX = system: EKVX
# NCI/ADR-RES = system: NCI/ADR-RES
# NCI-H226 = system: NCI-H226
# UACC-62 = system: UACC-62
# MOLT-4 = system: MOLT-4
# UACC-257 = system: UACC-257
# SF-268 = system: SF-268
# OVCAR-3 = system: OVCAR-3
# Hs-578T = system: Hs-578T
# A549 = system: A549
# U-251 = system: U-251
# NCI-H23 = system: NCI-H23
# UO-31 = system: UO-31
# HCT-15 = system: HCT-15
# HCC 2998 = system: HCC 2998
# SN12C = system: SN12C
# SK-MEL-2 = system: SK-MEL-2
Structure (SMILES),GI50 (HCT-116),GI50 (KM12),GI50 (SNB-19),GI50 (EKVX),GI50 (NCI/ADR-RES),GI50 (NCI-H226),GI50 (UACC-62),GI50 (MOLT-4),GI50 (UACC-257),GI50 (SF-268),GI50 (OVCAR-3),GI50 (Hs-578T),GI50 (A549),GI50 (U-251),GI50 (NCI-H23),GI50 (UO-31),GI50 (HCT-15),GI50 (HCC 2998),GI50 (SN12C),GI50 (SK-MEL-2)
COc1ccc2c(c1)c1nn(CCN3CCCCC3)c3ccc4c(=O)n(CCN(C)C)c(=O)n2c4c13,< 0.01 µM (active),< 0.01 µM (active),< 0.0138 µM (active),< 0.0142 µM (active),< 0.153 µM (active),0.0231 µM (active),0.0304 µM (active),< 0.01 µM (active),0.244 µM (active),< 0.01 µM (active),0.0151 µM (active),< 0.0325 µM (active),< 0.01 µM (active),< 0.01 µM (active),< 0.022 µM (active),< 0.0116 µM (active),< 0.01 µM,< 0.01 µM (active),< 0.01 µM (active),0.04 µM (active)
COc1ccc(/N=c2/[nH]c(N)c(C(=O)c3ccc(OC)cc3)s2)cc1,0.365 µM (active),0.378 µM (active),0.474 µM (active),17.3 µM (inactive),0.211 µM (active),17.7 µM (inactive),0.481 µM (active),0.0851 µM (active),> 100 µM (inactive),12.9 µM (inactive),0.255 µM (active),0.277 µM (active),0.59 µM (active),0.31 µM (active),0.508 µM (active),0.468 µM (active),0.412 µM,0.755 µM (active),1.93 µM (inactive),0.288 µM (active)
Cc1ccc(SC2=C(N(C)C)C(=O)c3ccccc3C2=O)cc1,1.1 µM (active),3.06 µM (inactive),12.3 µM (inactive),6.71 µM (inactive),0.847 µM (active),9.82 µM (inactive),4.35 µM (inactive),0.82 µM (active),1.91 µM (inactive),4.76 µM (inactive),0.661 µM (active),4.85 µM (inactive),12.6 µM (inactive),8.05 µM (inactive),1.82 µM (inactive),10.1 µM (inactive),2.45 µM,14 µM (inactive),4.92 µM (inactive),9.73 µM (inactive)
CCOC(=O)/C(C(=S)NC)=C(/N)N1CCCC1,> 100 µM (inactive),> 100 µM (inactive),> 100 µM (inactive),> 100 µM (inactive),> 100 µM (inactive),> 100 µM (inactive),> 100 µM (inactive),> 100 µM (inactive),> 100 µM (inactive),> 100 µM (inactive),> 100 µM (inactive),> 100 µM (inactive),> 100 µM (inactive),> 100 µM (inactive),> 100 µM (inactive),71.6 µM (inactive),> 100 µM,> 100 µM (inactive),> 100 µM (inactive),> 100 µM (inactive)
CC(C)(C)OC(=O)N(O)CCCn1cnc2c(NC3CC3)ncnc21,> 100 µM (inactive),> 100 µM (inactive),> 100 µM (inactive),> 100 µM (inactive),> 100 µM (inactive),> 100 µM (inactive),> 100 µM (inactive),> 100 µM (inactive),> 100 µM (inactive),> 100 µM (inactive),> 100 µM (inactive),> 100 µM (inactive),> 100 µM (inactive),> 100 µM (inactive),> 100 µM (inactive),> 100 µM (inactive),> 100 µM,> 100 µM (inactive),> 100 µM (inactive),> 100 µM (inactive)
Cc1ccc(C2SC(=N)Nc3c2c(C)nn3C(=O)c2ccc(Cl)cc2)cc1 (centres undefined),> 10 µM (inactive),> 10 µM (inactive),> 10 µM (inactive),> 10 µM (inactive),> 10 µM (inactive),> 10 µM (inactive),> 10 µM (inactive),> 10 µM (inactive),> 10 µM (inactive),> 10 µM (inactive),> 10 µM (inactive),> 10 µM (inactive),> 10 µM (inactive),> 10 µM (inactive),> 10 µM (inactive),–,> 10 µM,> 10 µM (inactive),> 10 µM (inactive),> 10 µM (inactive)
COc1c(/C=C/C(C)(C)O)cc(C2CC(=O)c3c(O)cc(O)cc3O2)cc1CC=C(C)C (centres undefined),9.14 µM (inactive),10.4 µM (inactive),10.6 µM (inactive),–,12.1 µM (inactive),9.71 µM (inactive),6.79 µM (inactive),11.7 µM (inactive),8.3 µM (inactive),9.04 µM (inactive),–,10.7 µM (inactive),9.75 µM (inactive),7.71 µM (inactive),9.02 µM (inactive),0.762 µM (active),8.2 µM,2.36 µM (inactive),6.27 µM (inactive),8.61 µM (inactive)
O=S1OC[C@H](CCCl)O1 (some centres undefined),> 100 µM (inactive),13.8 µM (inactive),> 100 µM (inactive),> 100 µM (inactive),> 100 µM (inactive),> 100 µM (inactive),> 100 µM (inactive),> 100 µM (inactive),> 100 µM (inactive),–,> 100 µM (inactive),> 100 µM (inactive),> 100 µM (inactive),> 100 µM (inactive),> 100 µM (inactive),> 100 µM (inactive),> 100 µM,> 100 µM (inactive),> 100 µM (inactive),> 100 µM (inactive)
CC[C@@]1(O)C(=O)OCc2c1cc1n(c2=O)Cc2c-1nc1ccccc1c2/C=N/NC(=O)c1ccc(N)cc1,0.1 µM (active),9.4 µM (inactive),0.0175 µM (active),–,0.392 µM (active),0.04 µM (active),0.0208 µM (active),0.0111 µM (active),6.44 µM (inactive),< 0.01 µM (active),0.714 µM (active),> 100 µM (inactive),0.578 µM (active),< 0.0141 µM (active),0.0798 µM (active),0.258 µM (active),2.95 µM,1.12 µM (inactive),0.0543 µM (active),5.37 µM (inactive)
CC1=NN(c2cccc(Cl)c2)C2(C1=Cc1cccs1)C(Cl)C(=O)N2c1nc2ccccc2s1 (centres undefined),18.4 µM (inactive),28.7 µM (inactive),–,19.5 µM (inactive),21.9 µM (inactive),24.3 µM (inactive),–,22.3 µM (inactive),23.2 µM (inactive),21.5 µM (inactive),17.7 µM (inactive),27.4 µM (inactive),21.9 µM (inactive),15.1 µM (inactive),21.3 µM (inactive),23.9 µM (inactive),20.6 µM,17 µM (inactive),–,17.9 µM (inactive)
CC1(C(=O)O)C[C@](C)(C(=O)OCc2ccccc2)C[C@](C)(C(=O)OCc2ccccc2)C1 (some centres undefined),24.1 µM (inactive),31.2 µM (inactive),45.7 µM (inactive),25.1 µM (inactive),29.4 µM (inactive),27.3 µM (inactive),19 µM (inactive),25.4 µM (inactive),38.9 µM (inactive),47.9 µM (inactive),26.4 µM (inactive),30.3 µM (inactive),35.6 µM (inactive),–,25.1 µM (inactive),21.9 µM (inactive),25.5 µM,27 µM (inactive),30.2 µM (inactive),17.5 µM (inactive)
CC(C)OC(=O)C1(C(C)C)CCc2ccc(C(=O)CCC(=O)O)cc21 (centres undefined),> 100 µM (inactive),> 100 µM (inactive),> 100 µM (inactive),> 100 µM (inactive),> 100 µM (inactive),> 100 µM (inactive),> 100 µM (inactive),> 100 µM (inactive),> 100 µM (inactive),> 100 µM (inactive),–,> 100 µM (inactive),> 100 µM (inactive),> 100 µM (inactive),> 100 µM (inactive),> 100 µM (inactive),> 100 µM,> 100 µM (inactive),> 100 µM (inactive),> 100 µM (inactive)
CC1=C(C#N)C2C(=C(C)N1)C(N)=Nc1ccccc12 (centres undefined),32.6 µM (inactive),27.6 µM (inactive),37.1 µM (inactive),19.1 µM (inactive),> 100 µM (inactive),30 µM (inactive),25.8 µM (inactive),33.2 µM (inactive),99.5 µM (inactive),39.4 µM (inactive),28.4 µM (inactive),23 µM (inactive),73.1 µM (inactive),–,55.2 µM (inactive),–,85.5 µM,35.2 µM (inactive),38.5 µM (inactive),81.8 µM (inactive)
Cc1cc2nn(C3CCCO3)nc2cc1C (centres undefined),> 100 µM (inactive),–,–,> 100 µM (inactive),> 100 µM (inactive),> 100 µM (inactive),> 100 µM (inactive),> 100 µM (inactive),> 100 µM (inactive),> 100 µM (inactive),> 100 µM (inactive),> 100 µM (inactive),> 100 µM (inactive),> 100 µM (inactive),> 100 µM (inactive),–,> 100 µM,> 100 µM (inactive),> 100 µM (inactive),> 100 µM (inactive)
O=S1(=O)c2ccccc2-c2nccc3ccnc1c23,12.9 µM (inactive),22.8 µM (inactive),23.2 µM (inactive),15.4 µM (inactive),20.8 µM (inactive),43.5 µM (inactive),7.59 µM (inactive),2.72 µM (inactive),28.5 µM (inactive),23.5 µM (inactive),10.3 µM (inactive),32.1 µM (inactive),–,28.1 µM (inactive),14.6 µM (inactive),8.24 µM (inactive),7.87 µM,12.8 µM (inactive),17.8 µM (inactive),28.7 µM (inactive)
